Earlier results, collected in patent US20090042781A1, “Methods for Treating Diabetes” (Novo Nordisk A/S, priority 2004, published 2009).

Experiments:
[1] = administered by gastric gavage
[2] = injected into dogs

Question: Which serum gastrin level [1] does the source give for CC(C)(Oc1ccc(C2CC2(Cl)Cl)cc1)C(=O)O (stereo not drawn) [ciprofibrate] here?
Answer: increase

Question: For Exendin-4, which blood glucose level [2] is on record?
Answer: lowering of the blood glucose level

Question: What about the insulin release [2] of the same compound?
Answer: stimulate insulin release
